Legend:
[1] = tested on: underarm odor; test: Deodorant value test (modified), odor assessment on axillae of human subjects; format: in vivo; details: general statement in description
Experimental: A typical test for deodorant effect of the present invention was carried out as follows. The test solution was the composition containing 0.4% monensin. The positive control was 8.2% aluminum chlorhydrate, a level that is used in most deodorant or antiperspirant products on the market and 0.4% chlorhesidine digluconate, a level that is usually used for bacterial killing. The negative control was a vehicle consisting of 60% ethanol and 40% water. Three experienced underarm odor assessors who are able to rank correctly the odor intensities based on the deodorant value test system (U.S. Pat. No. 4,278,658) performed odor assessments. Deodorant assessment scores were recorded according to the malodor category scale, when applied directly to the axillae skin of a panel of human subjects. [table] The described in deodorant value test system has been modified by measuring odor intensity every 24 hours after treatment until odor intensity is detectable (average score 1 or up) on a 0-5 score instead of just 24 hours after In example 2, fifteen subjects selected by experienced odor assessors have average odor score 3.5 (range from score 3-5). […] At 24 hour intervals, each subject was evaluated for underarm odor by averaging the score of the three assessors until odor in test groups was detectable (score 1 or up).

[2] = tested on: skin; details: human, in vivo

Structure (SMILES): CC[C@@]1([C@@H]2O[C@@H]([C@H]3O[C@@](O)(CO)[C@H](C)C[C@@H]3C)C[C@@H]2C)CC[C@H]([C@]2(C)CC[C@]3(C[C@H](O)[C@@H](C)[C@@H]([C@@H](C)[C@@H](OC)[C@H](C)C(=O)O)O3)O2)O1 [monensin, Monensin]
- duration of deodorant effect in preventing malodor [1]: deodorant effect with a longer period than expected
- skin irritation [2]: did not cause any irritation

From patent publication US20020192171A1, “Method for preventing malodor” (priority 2001, published 2002)
